Measured values from PubChem BioAssay AID1919001 (Molecular Pharmacology Branch, DTP, NCI, 2023).

System: 699152-130-R-J1-PDC complex spheroid growth
Test: Anticancer human tumor 699152-130-R-J1-PDC patient-derived pancreatic carcinoma cell line growth inhibition [AhR]
Conditions: for IC50: curve of first compound; for viability, T/C: stronger effect = lower value
Outline: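 Spheroids combined tumor cells with HUVEC endothelial cells and human MSCs as stroma. AhR antagonists were paired with standard or investigational drugs, each dosed in half-log steps down from near clinical Cmax, or from 10 microM where Cmax was unknown.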

[1] = second compound 0.1 µM, first compound 0.00316 µM
[2] = second compound 0.1 µM, first compound 0.01 µM
[3] = second compound 0.1 µM, first compound 0.0316 µM
[4] = second compound 0.1 µM, first compound 0.1 µM
[5] = second compound 0.316 µM, first compound 0.00316 µM
[6] = second compound 0.316 µM, first compound 0.01 µM
[7] = second compound 0.316 µM, first compound 0.0316 µM
[8] = second compound 0.316 µM, first compound 0.1 µM
[9] = second compound 1 µM, first compound 0.00316 µM
[10] = second compound 1 µM, first compound 0.01 µM
[11] = second compound 1 µM, first compound 0.0316 µM
[12] = second compound 1 µM, first compound 0.1 µM
[13] = second compound 3.16 µM, first compound 0.00316 µM
[14] = second compound 3.16 µM, first compound 0.01 µM
[15] = second compound 3.16 µM, first compound 0.0316 µM
[16] = second compound 3.16 µM, first compound 0.1 µM
[17] = second compound 10 µM, first compound 0.00316 µM
[18] = second compound 10 µM, first compound 0.01 µM
[19] = second compound 10 µM, first compound 0.0316 µM
[20] = second compound 10 µM, first compound 0.1 µM
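Note: compound exposure lasted 7 days after spheroids had grown for 3 days.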

Row | SMILES | IC50 (second compound 0.1 µM) | IC50 (second compound 0.316 µM) | IC50 (second compound 1 µM) | IC50 (second compound 3.16 µM) | IC50 (second compound 10 µM) | viability, T/C [1] | viability, T/C [2] | viability, T/C [3] | viability, T/C [4] | viability, T/C [5] | viability, T/C [6] | viability, T/C [7] | viability, T/C [8] | viability, T/C [9] | viability, T/C [10] | viability, T/C [11] | viability, T/C [12] | viability, T/C [13] | viability, T/C [14] | viability, T/C [15] | also measured
1 | Nc1ncn(C2CC(O)C(CO)O2)c(=O)n1 (stereo not given) + Cc1ccccc1N=Nc1ccc(NC(=O)c2ccnn2C)c(C)c1 | > 1000 nM | > 1000 nM | > 1000 nM | > 1000 nM | > 1000 nM | 98.3% | 98.6% | 93.7% | 86.6% | 95.3% | 91.7% | 99.7% | 90.5% | 93.9% | 95.6% | 87.9% | 91.2% | 104% | 102% | 86.8% | viability, T/C (second compound 0.1 µM, first compound 0.316 µM): 81.9%; viability, T/C (second compound 0.1 µM, first compound 1 µM): 78.7%; viability, T/C (second compound 0.316 µM, first compound 0.316 µM): 85.6%; viability, T/C (second compound 0.316 µM, first compound 1 µM): 80.6%; viability, T/C (second compound 1 µM, first compound 0.316 µM): 88.7%; viability, T/C (second compound 1 µM, first compound 1 µM): 88.5%; viability, T/C [16]: 77.2%; viability, T/C (second compound 3.16 µM, first compound 0.316 µM): 104%; viability, T/C (second compound 3.16 µM, first compound 1 µM): 86.4%; viability, T/C [17]: 117%; viability, T/C [18]: 103%; viability, T/C [19]: 75.3%; viability, T/C [20]: 83.9%; viability, T/C (second compound 10 µM, first compound 0.316 µM): 86.5%; viability, T/C (second compound 10 µM, first compound 1 µM): 85.6%
2 | Cn1ncnc1C1c2n[nH]c(=O)c3cc(F)cc(c23)NC1c1ccc(F)cc1 (stereo not given) + Cc1cncc(-c2nc(NCCc3c[nH]c4ccccc34)c3ncn(C(C)C)c3n2)c1 | > 100 nM | > 100 nM | > 100 nM | > 100 nM | < 0.316 nM | 109% | 115% | 105% | 104% | 125% | 115% | 102% | 104% | 119% | 116% | 111% | 124% | 118% | 116% | 114% | viability, T/C (second compound 0.1 µM, first compound 0.000316 µM): 95.2%; viability, T/C (second compound 0.1 µM, first compound 0.001 µM): 117%; viability, T/C (second compound 0.316 µM, first compound 0.000316 µM): 113%; viability, T/C (second compound 0.316 µM, first compound 0.001 µM): 115%; viability, T/C (second compound 1 µM, first compound 0.000316 µM): 125%; viability, T/C (second compound 1 µM, first compound 0.001 µM): 117%; viability, T/C (second compound 3.16 µM, first compound 0.000316 µM): 128%; viability, T/C (second compound 3.16 µM, first compound 0.001 µM): 114%; viability, T/C [16]: 99.1%; viability, T/C (second compound 10 µM, first compound 0.000316 µM): 26.1%; viability, T/C (second compound 10 µM, first compound 0.001 µM): 28.6%; viability, T/C [17]: 34.2%; viability, T/C [18]: 26.6%; viability, T/C [19]: 28%; viability, T/C [20]: 22.5%
